Test results as given in the supplement of paper PMC13380429.

Assays:
Details in all cases: 72 h
U2OS [1] = test: drug sensitivity score (DSS) for viability; higher = more toxic; extreme values may be limits of the assay
Calu-3 [2] = test: as above
HepG2 [3] = test: as above
Caco-2 [4] = test: as above
U2OS [5] = test: cell viability relative to DMSO; higher = less toxic
Calu-3 [6] = test: as above
HepG2 [7] = test: as above
Caco-2 [8] = test: as above
U2OS [9] = test: relative viability EC50 (midpoint between 100% and the lowest measured viability); higher = less toxic
Calu-3 [10] = test: as above
HepG2 [11] = test: as above
Caco-2 [12] = test: as above
Vero E6 [13] = test: drug sensitivity score (DSS) for viability; higher = more toxic; extreme values may be limits of the assay
Vero E6 [14] = test: cell viability relative to DMSO; higher = less toxic
Vero E6 [15] = test: relative viability EC50 (midpoint between 100% and the lowest measured viability); higher = less toxic

Row | Compound | drug sensitivity score (U2OS [1]) | drug sensitivity score (Calu-3 [2]) | drug sensitivity score (HepG2 [3]) | drug sensitivity score (Caco-2 [4]) | cell viability (U2OS [5]; 1 nM) | cell viability (U2OS [5]; 10 nM) | cell viability (U2OS [5]; 100 nM) | cell viability (U2OS [5]; 1000 nM) | cell viability (U2OS [5]; 10000 nM) | cell viability (Calu-3 [6]; 1 nM) | cell viability (Calu-3 [6]; 10 nM) | cell viability (Calu-3 [6]; 100 nM) | cell viability (Calu-3 [6]; 1000 nM) | cell viability (Calu-3 [6]; 10000 nM) | cell viability (HepG2 [7]; 1 nM) | cell viability (HepG2 [7]; 10 nM) | cell viability (HepG2 [7]; 100 nM) | cell viability (HepG2 [7]; 1000 nM) | cell viability (HepG2 [7]; 10000 nM) | cell viability (Caco-2 [8]; 1 nM) | cell viability (Caco-2 [8]; 10 nM) | cell viability (Caco-2 [8]; 100 nM) | cell viability (Caco-2 [8]; 1000 nM) | cell viability (Caco-2 [8]; 10000 nM) | relative viability EC50 (U2OS [9]) | relative viability EC50 (Calu-3 [10]) | relative viability EC50 (HepG2 [11]) | relative viability EC50 (Caco-2 [12]) | drug sensitivity score (Vero E6 [13]) | cell viability (Vero E6 [14]; 1 nM) | cell viability (Vero E6 [14]; 10 nM) | cell viability (Vero E6 [14]; 100 nM) | cell viability (Vero E6 [14]; 1000 nM) | cell viability (Vero E6 [14]; 10000 nM) | relative viability EC50 (Vero E6 [15])
1 | O=c1ccc2ccccc2o1 [coumarin] | 0 | 0 | 0 | 0 | 100% | 98.1% | 96.1% | 99.1% | 98.1% | 97.7% | 90.9% | 95.6% | 105% | 88.6% | 91.8% | 107% | 106% | 96.7% | 111% | 96.5% | 97.6% | 99.2% | 95.9% | 95.5% | > 10 µM | > 10 µM | > 10 µM | > 10 µM |  |  |  |  |  |  | 
2 | COc1ccccc1OC(=O)c1ccccc1OC(C)=O [guacetisal] | 0 | 0 | 0 |  | 97.3% | 96.8% | 99.2% | 104% | 99% | 105% | 90.9% | 108% | 102% | 97.4% | 97.1% | 115% | 104% | 104% | 88.4% |  |  |  |  |  | > 10 µM | > 10 µM | > 10 µM |  | 0 | 101% | 105% | 101% | 102% | 98.9% | > 10 µM
3 | Clc1ccccc1C(c1ccccc1)(c1ccccc1)n1ccnc1 [clotrimazole] | 1.2 | 0 | 2.2 | 2.2 | 104% | 104% | 95.9% | 99.5% | 72% | 94.7% | 102% | 92.9% | 96.4% | 94% | 96.9% | 98% | 114% | 99.8% | 56.9% | 96% | 97.1% | 96.2% | 91.9% | 71% |  | > 10 µM |  |  | 0 | 93.8% | 95.3% | 100% | 99.2% | 89.9% | > 10 µM
4 | O=C(O)[C@@H]1C[C@@H](C2CCCCC2)CN1C(=O)CP(=O)(O)CCCCc1ccccc1 [fosinoprilat] | 0 | 0 | 0 | 0 | 99.6% | 93.7% | 97.5% | 95% | 97.1% | 99.4% | 98.8% | 98.4% | 95.1% | 108% | 105% | 104% | 96.2% | 101% | 101% | 97.6% | 88.5% | 105% | 90.4% | 102% | > 10 µM | > 10 µM | > 10 µM | > 10 µM |  |  |  |  |  |  | 
5 | CCOc1cc(C(=O)Nc2ccc(Cl)c(-c3nc4ccccc4[nH]3)c2)cc(OCC)c1OCC [SANT-2] | 0 | 1.7 | 2.5 | 3.4 | 94.2% | 98.8% | 98.3% | 103% | 90% | 103% | 111% | 97.5% | 94% | 75.7% | 102% | 94.4% | 99.6% | 90.9% | 71.5% | 94.6% | 102% | 89.4% | 91.6% | 57.8% | > 10 µM | > 10 µM |  |  | 0 | 97.4% | 93.7% | 99.4% | 95.2% | 92.6% | > 10 µM
6 | Cc1cccc(NC(=O)CN2CCC(c3ccccn3)CC2)c1 | 0 | 0 | 0 | 0 | 98.9% | 97.9% | 94.7% | 98.1% | 93.9% | 110% | 101% | 109% | 108% | 98.1% | 108% | 103% | 97% | 102% | 101% | 98.7% | 101% | 95% | 91.3% | 93.9% | > 10 µM | > 10 µM | > 10 µM | > 10 µM |  |  |  |  |  |  | 
